Results taken from patent publication US8829015B2 (Novartis AG, priority 2005, dated 2014).
Converted amounts (≈) assume the structure as drawn. Structures can show the parent of a compound that is named as a salt.

Tests used:
physchem [1] = settings: aqueous buffer solution, thermodynamic from solid
[2] = Equilibration of free base forms with solvents, XRPD; format: physicochemical
Excerpt: The solid part was investigated by XRPD.

[3] = Intrinsic dissolution rate (rotating disk); format: physicochemical; settings: for Intrinsic dissolution rate: 37° C., 200 rpm
Experimental: Intrinsic Dissolution Rate (IDR): Dissolution rate measurements were performed at 37° C. using the rotating disk method (VanKell Instrument). A single rotation speed of 200 rpm was used. For IDR in 0.1N HCl, an 800 mL volume, and for IDR in water, a 200 mL volume were used. The solution was continuously pumped through a UV measuring cell and recycled to the dissolution vessel.
The measurements were carried out on a VanKel instrument using a Cary 100 photometer.

[4] = Hygroscopicity (water uptake); format: physicochemical; settings: 25° C. up to 80% r.h.
[5] = pH of 1% solution or suspension in water; format: physicochemical; settings: 1% in water
[6] = Thermal properties by TGA and DSC; format: physicochemical
Excerpt: Form A's basic thermal properties were studied by thermogravimetric analysis (TGA) and differential scanning calorimetry (DSC) and are as follows:

[7] = Equilibration of hydrochloride form B with solvents (approximate solubility by gravimetry, form by XRPD); settings: for Solubility: equilibrated at least 20 hours
[8] = Equilibration of hydrochloride forms A, B and C with solvents, XRPD; format: physicochemical
Excerpt: Then the solutions were filtered and the solid part investigated by XRPD.

[9] = Form conversion on exposure to solvent vapor, air, moisture or room conditions; format: physicochemical; settings: in the presence of ethanol
[10] = Compression with a hydraulic press, XRPD; format: physicochemical; settings: 5 minutes at 10 tons, room temperature
[11] = Wetting with granulating solvent, XRPD; format: physicochemical; settings: dried under vacuum
Excerpt: The material is vortexed between each addition. Then the material is dried under vacuum to <2% or less and evaluated for form and degree of crystallinity by XRPD or DSC.

[12] = Solubility by gravimetric techniques at different temperatures, residue by XRPD
[13] = Stability studies on storage; format: physicochemical; settings: storage at various relative humidities
physchem [14] = settings: tetrahydrofuran/water (1:1), 25 °C, aqueous with cosolvent or surfactant or cyclodextrin, thermodynamic from solid
[15] = thirteen solvents, one day, 25° C.
[16] = 0.1N HCl, 50° C., after 24 hours

Q: For Cc1cn(-c2cc(NC(=O)c3ccc(C)c(Nc4nccc(-c5cccnc5)n4)c3)cc(C(F)(F)F)c2)cn1 [Form B of the free base], which Solubility (physchem [1]; pH 2.8, aqueous buffer) is on record?
A: The Solubility was 2.8 µg/mL (≈ 5.29 µM).

Q: And the “form transition on equilibration” value ([2]; seven solvents (methanol, ethanol, 2-propanol, ethyl acetate, acetone, tetrahydrofuran, acetonitrile), at least 48 hours, room temperature)?
A: Its value is “No form transition occurred”.

Q: What about the “form transition on equilibration” value [2, 15] of the same molecule?
A: The value was “No form transitions occurred with the exception of one trial of form B in water”.

Q: And the Intrinsic dissolution rate ([3]; Water, listed as Free base form B)?
A: The Intrinsic dissolution rate was 0.0013 mg min^−1cm^−2.

Q: And the Intrinsic dissolution rate ([3]; pH 1 (0.1 N HCl))?
A: Its Intrinsic dissolution rate is 0.17 mg min^−1cm^−2.

Q: What about the hygroscopicity [4] of the same molecule?
A: Its hygroscopicity is “not hygroscopic”.

Q: What about the maximum water uptake [4] of the same molecule?
A: Its maximum water uptake is “less than 0.2%”.

Q: And the “pH of 1% solution or suspension in water” value ([5]; listed as Free base form B)?
A: The value was 7.99.

Q: And the Decomposition temperature [6]?
A: Its Decomposition temperature is over 300 °C.

Q: With Cc1cn(-c2cc(NC(=O)c3ccc(C)c(Nc4nccc(-c5cccnc5)n4)c3)cc(C(F)(F)F)c2)cn1 [Form B of the hydrochloride salt] as the molecule, how does the Solubility ([7]; Acetonitrile, 25° C.) read?
A: The Solubility was 0.3 mg/g.

Q: What about the Solubility ([7]; Acetonitrile, 50° C.) of the same molecule?
A: The Solubility was 2.1 mg/g.

Q: And the Solubility ([7]; Acetonitrile-water 1:1, 25° C.)?
A: Its Solubility is 10.3 mg/g.

Q: And the Solubility ([7]; DMSO, 50° C.)?
A: The Solubility was over 27.5 mg/g.

Q: What about the Solubility ([7]; Ethanol (96%), 25° C.) of the same molecule?
A: Its Solubility is 3.9 mg/g.

Q: What about the Solubility ([7]; Ethanol (96%), 50° C.) of the same molecule?
A: Its Solubility is 22.4 mg/g.

Q: What about the Solubility ([7]; Ethanol, 50° C.) of the same molecule?
A: The Solubility was 26.5 mg/g.

Q: And the Solubility ([7]; Ethanol-water 1:1, 50° C.)?
A: The Solubility was 17.2 mg/g.

Q: And the Solubility ([7]; Ethyl acetate, 25° C.)?
A: The Solubility was 0.3 mg/g.

Q: And the Solubility ([7]; Ethyl acetate, 50° C.)?
A: Its Solubility is 3.0 mg/g.

Q: What about the Solubility ([7]; Methanol, 25° C.) of the same molecule?
A: Its Solubility is 16.3 mg/g.

Q: And the “Form (XRPD) after equilibration” value ([7]; Methanol, 50° C., at least 20 hours)?
A: Its value is “Solvate (as wet cake - dries to B)”.

Q: What about the Solubility ([7]; Methanol, 50° C.) of the same molecule?
A: The Solubility was over 27.5 mg/g.

Q: What about the Solubility ([7]; Propan-2-ol, 25° C.) of the same molecule?
A: The Solubility was 1.5 mg/g.

Q: What about the Solubility ([7]; Propan-2-ol, 50° C.) of the same molecule?
A: Its Solubility is 4.8 mg/g.

Q: And the Solubility ([7]; Tetrahydrofuran, 25° C.)?
A: The Solubility was 5.8 mg/g.

Q: And the Solubility ([7]; Tetrahydrofuran-water 1:1, 25° C.)?
A: Its Solubility is 12.2 mg/g.

Q: What about the Solubility ([7]; Toluene, 25° C.) of the same molecule?
A: Its Solubility is 1.3 mg/g.

Q: What about the Solubility ([7]; Toluene, 50° C.) of the same molecule?
A: The Solubility was 5.6 mg/g.

Q: And the “form transition on equilibration” value ([8]; 10 different solvents (ethanol, methanol, water, ethanol/water 99:1, methanol/water 99:1 and 99.3:0.7, methanol/HCl 0.1N, diethylether, hexane, tetrahydrofuran), one day, 25° C.)?
A: The value was “No form transitions occurred”.

Q: And the “form transition on equilibration” value ([8]; ethanol, 50° C., 2 days)?
A: Its value is “transitioned to a mixture of forms A and B”.

Q: What about the Intrinsic dissolution rate ([3]; Water, listed as Hydrochloride monohydrate (form B)) of the same molecule?
A: The Intrinsic dissolution rate was 0.0024 mg min^−1cm^−2.

Q: What about the “Intrinsic Dissolution Rate value” ([3]; dissolution medium HCl 0.0001 N) of the same molecule?
A: Its value is 0.0010 mg/min/cm^2.

Q: And the “Intrinsic Dissolution Rate value” ([3]; dissolution medium HCl 0.001 N)?
A: The value was 0.0045 mg/min/cm^2.

Q: What about the “Intrinsic Dissolution Rate value” ([3]; dissolution medium HCl 0.01 N) of the same molecule?
A: Its value is 0.0224 mg/min/cm^2.

Q: What about the “Intrinsic Dissolution Rate value” ([3]; dissolution medium HCl 0.1 N) of the same molecule?
A: Its value is 0.1003 mg/min/cm^2.

Q: What about the “Intrinsic Dissolution Rate value” ([3]; dissolution medium Water) of the same molecule?
A: Its value is 0.0001 mg/min/cm^2.

Q: And the Intrinsic dissolution rate ([3]; pH 1 (0.1 N HCl))?
A: Its Intrinsic dissolution rate is 0.17 mg min^−1cm^−2.

Q: And the form conversion [9]?
A: The form conversion was “converts to form A”.

Q: And the “change of crystalline modification (by XRPD) after compression” value [10]?
A: Its value is “no change of crystalline modification”.

Q: What about the “XRPD results after granulation” value ([11]; granulating solvent Ethanol) of the same molecule?
A: Its value is “No change”.

Q: What about the “XRPD results after granulation” value ([11]; granulating solvent Water) of the same molecule?
A: Its value is “No change”.

Q: And the “pH of 1% solution or suspension in water” value ([5]; listed as Hydrochloride monohydrate (form B))?
A: The value was 2.53.

Q: What about the Solubility ([12]; 0.0001N HCl, 25° C., after 24 hours) of the same molecule?
A: Its Solubility is 470 µg/mL.

Q: And the Solubility ([12]; 0.0001N HCl, 50° C., after 24 hours)?
A: The Solubility was 1320 µg/mL.

Q: And the Solubility ([12]; 0.001N HCl, 25° C., after 24 hours)?
A: The Solubility was 700 µg/mL.

Q: And the Solubility ([12]; 0.001N HCl, 50° C., after 24 hours)?
A: The Solubility was 1340 µg/mL.

Q: What about the Solubility ([12]; 0.01N HCl, 25° C., after 24 hours) of the same molecule?
A: Its Solubility is 690 µg/mL.

Q: And the Solubility ([12]; 0.01N HCl, 50° C., after 24 hours)?
A: The Solubility was 1440 µg/mL.

Q: And the Solubility ([12]; 0.1N HCl, 25° C., after 24 hours)?
A: The Solubility was 2360 µg/mL.

Q: And the Solubility [12, 16]?
A: Its Solubility is 6620 µg/mL.

Q: What about the “XRPD (form of the solid)” value [12, 16] of the same molecule?
A: The value was “B + A”.

Q: What about the Solubility ([12]; Methanol, 25° C., after 24 hours) of the same molecule?
A: Its Solubility is 14370 µg/mL.

Q: What about the Solubility ([12]; Methanol, 50° C., after 24 hours) of the same molecule?
A: Its Solubility is 52110 µg/mL.

Q: And the Solubility ([12]; Methanol/Water (95/5) v/v, 20° C., 10 minutes)?
A: The Solubility was 13640 µg/mL.

Q: And the Solubility ([12]; Methanol/Water (95/5) v/v, 20° C., 1 hour)?
A: The Solubility was 13430 µg/mL.

Q: What about the Solubility ([12]; Methanol/Water (95/5) v/v, 20° C., 24 hours) of the same molecule?
A: The Solubility was 13010 µg/mL.

Q: What about the Solubility ([12]; Methanol/Water (95/5) v/v, 45° C., 10 minutes) of the same molecule?
A: The Solubility was 34490 µg/mL.

Q: And the Solubility ([12]; Methanol/Water (95/5) v/v, 45° C., 1 hour)?
A: Its Solubility is 38180 µg/mL.

Q: What about the Solubility ([12]; Methanol/Water (95/5) v/v, 45° C., 24 hours) of the same molecule?
A: The Solubility was 41700 µg/mL.

Q: What about the Solubility ([12]; Methanol/Water (95/5) v/v, −10° C., 10 minutes) of the same molecule?
A: Its Solubility is 9420 µg/mL.

Q: What about the Solubility ([12]; Methanol/Water (95/5) v/v, −10° C., 1 hour) of the same molecule?
A: Its Solubility is 6650 µg/mL.

Q: What about the Solubility ([12]; Methanol/Water (95/5) v/v, −10° C., 24 hours) of the same molecule?
A: The Solubility was 4850 µg/mL.

Q: What about the Solubility ([12]; Methanol/Water (99.5/0.5) v/v, 20° C., 10 minutes) of the same molecule?
A: The Solubility was 12900 µg/mL.

Q: And the Solubility ([12]; Methanol/Water (99.5/0.5) v/v, 20° C., 1 hour)?
A: Its Solubility is 13780 µg/mL.

Q: What about the Solubility ([12]; Methanol/Water (99.5/0.5) v/v, 20° C., 24 hours) of the same molecule?
A: The Solubility was 12210 µg/mL.

Q: What about the Solubility ([12]; Methanol/Water (99.5/0.5) v/v, 45° C., 10 minutes) of the same molecule?
A: Its Solubility is 33290 µg/mL.

Q: What about the Solubility ([12]; Methanol/Water (99.5/0.5) v/v, 45° C., 1 hour) of the same molecule?
A: The Solubility was 39390 µg/mL.

Q: What about the Solubility ([12]; Methanol/Water (99.5/0.5) v/v, 45° C., 24 hours) of the same molecule?
A: The Solubility was 40400 µg/mL.

Q: And the Solubility ([12]; Methanol/Water (99.5/0.5) v/v, −10° C., 10 minutes)?
A: The Solubility was 7620 µg/mL.

Q: What about the Solubility ([12]; Methanol/Water (99.5/0.5) v/v, −10° C., 1 hour) of the same molecule?
A: Its Solubility is 5630 µg/mL.

Q: And the Solubility ([12]; Methanol/Water (99.5/0.5) v/v, −10° C., 24 hours)?
A: Its Solubility is 4000 µg/mL.

Q: And the Solubility ([12]; Water, 25° C., after 24 hours)?
A: Its Solubility is 1280 µg/mL.

Q: What about the Solubility ([12]; Water, 50° C., after 24 hours) of the same molecule?
A: Its Solubility is 1400 µg/mL.

Q: And the “form transition after storage” value [13]?
A: Its value is “No form transitions were observed”.

Q: For Cc1cn(-c2cc(NC(=O)c3ccc(C)c(Nc4nccc(-c5cccnc5)n4)c3)cc(C(F)(F)F)c2)cn1 [Form A of the free base], which Solubility (physchem [1]; pH 1, simulated gastric fluid) is on record?
A: The Solubility was over 200 µg/mL.

Q: And the “form transition on equilibration” value [2, 15]?
A: Its value is “No form transitions occurred”.

Q: And the Solubility (physchem [14])?
A: Its Solubility is 1780 µg/mL (≈ 3360 µM).

Q: And the hygroscopicity [4]?
A: The hygroscopicity was “slightly hygroscopic”.

Q: What about the maximum water uptake [4] of the same molecule?
A: Its maximum water uptake is “less than 2%”.

Q: What about the Decomposition temperature [6] of the same molecule?
A: The Decomposition temperature was over 300 °C.
